From patent US6461997B1, “Triazole sulfones having herbicidal activity” (Monsanto Technology LLC, priority 1999, dated 2002)

Experiments:
[1] = test system: GALAP (catchweed bedstraw); test: Pre-plant incorporated (PPI) herbicidal activity, cool season; format: in vivo, Galium aparine
Procedure: (§1) In another set of tests, the pre-plant incorporated (PPI) activity of compounds of this invention was evaluated on the same species as for the pre-emergence tests described above. In the PPI tests the following procedure, designed to simulate PPI application, was used.
(§2) A pre-prepared topsoil mixture (described above) was placed in a pot and compacted to a depth of 1.0 to 1.25 cm from the top of the pot. Seeds of each of several monocotyledonous and dicotyledonous annual plant species were placed on top of the soil. A sufficient quantity of soil to cover the seeds and level fill the pot was weighed into an open container. A known amount of the test compound was dissolved or suspended in an organic solvent and applied by spraying to this cover soil. The cover soil was thoroughly mixed to distribute the test compound throughout the cover soil, and was then applied as a cover layer over the seeds. Untreated soil was used as a cover layer for control pots. After treatment the plants were placed in a greenhouse where they received 0.64 cm of overhead irrigation. All subsequent watering consisted of a light overhead mist and/or subirrigation as needed for germination and growth. Tables 9 and 10 below relate to warm season plant species which were placed after pre-emergence treatment in a greenhouse with a 30/21° C. day/night temperature regime. Tables 11 and 12 below relates to cool season plant species placed after pre-emergence treatment in a greenhouse or growth chamber with an 18/13° C. day/night temperature regime. Only the compounds of Examples 1, 6, 8, 11, 13 and 15-20 were included in PPI tests.
(§3) Approximately 14 days after planting and treating, the plants were observed and herbicidal efficacy recorded as percent inhibition by comparison with untreated plants.

[2] = test system: rice (ORYSA); test: Selectivity test, PPI, warm season crop; format: in vivo, Oryza sativa; conditions: Oryza sativa, PPI application, read-out: Percent inhibition ORYSA
Procedure: as §2, §3
(§4) Additional pre-emergence and PPI tests were conducted by the procedures described above, on warm and cool season weed species in the presence of crop species, to assess herbicidal selectivity. Crop species included in warm season tests were corn (Zea mays, ZEAMX), rice (Oryza sativa, ORYSA) and soybean (Glycine max, GLYMX). Crop species included in cool season tests were wheat (Triticum aestivum, TRZAW), barley (Hordeunm vulgare, HORVX) and oilseed rape (Brassica napus, BRSNS).
(§5) Tables 15 and 16 relate to pre-emergence and PPI tests respectively on warm season species. Table 17 relates to pre-emergence tests on cool season species.

[3] = test system: LOLMG (annual ryegrass); test: Pre-plant incorporated (PPI) herbicidal activity, cool season; format: in vivo, Lolium multiflorum
Procedure: as §1, §2, §3

[4] = test system: BRAPP (broadleaf signalgrass); test: Pre-plant incorporated (PPI) herbicidal activity, warm season; format: in vivo, Brachiaria platyphylla
Procedure: as §1, §2, §3

[5] = test system: SETVI (green foxtail); test: Post-emergence herbicidal activity, cool season; format: in vivo, Setaria viridis; conditions: abraded plants sprayed at 300, 100, 30 and 10 g/ha; about 14 days after treatment
Outline: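 Seeds sown in topsoil, covered with 50% topsoil/50% Rediearth™, subirrigated. At 9 to 14 days, foliage abraded, then sprayed at 300, 100, 30 or 10 g/ha in acetone/water 50:50. Plants held at 18/13° C. day/night, rated for % inhibition at ~14 days, GR80 assigned.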

[6] = test system: POLCO (wild buckwheat); test: Pre-plant incorporated (PPI) herbicidal activity, cool season; format: in vivo, Polygonum convolvulus; conditions: pre-plant incorporated; lowest tested rate with 80% or greater inhibition; about 14 days
Procedure: as §1, §2, §3

[7] = test system: corn (ZEAMX); test: Selectivity test, PPI, warm season crop; format: in vivo, Zea mays; conditions: Zea mays, PPI application, read-out: Percent inhibition ZEAMX
Procedure: as §2, §3, §4, §5

[8] = test system: STEME (common chickweed); test: Pre-plant incorporated (PPI) herbicidal activity, cool season; format: in vivo, Stellaria media; conditions: pre-plant incorporated; lowest tested rate with 80% or greater inhibition; about 14 days
Procedure: as §1, §2, §3

[9] = test system: barley (HORVX); test: Selectivity test, PPI, cool season crop; format: in vivo, Hordeunm vulgare; conditions: Hordeum vulgare, PPI application, read-out: Percent inhibition HORVX
Procedure: as §2, §3, §4, §5

[10] = test system: AGSST (creeping bentgrass); test: Pre-plant incorporated (PPI) herbicidal activity, cool season; format: in vivo, Agrostis stolonifera
Procedure: as §1, §2, §3

[11] = pre-plant incorporated, lowest tested rate with 80% or greater inhibition, about 14 days

## C=CCC(F)(F)S(=O)(=O)c1ncn(C(=O)N(CC)CC)n1 [Example 17, 1-(N,N-diethylcarbamoyl)-3-[(1,1-difluoro-3-butenyl)sulfonyl]-1,2,4-triazole]
[1]; Galium aparine, weed, PPI application, 10 g/ha, read-out: Percent inhibition GALAP
  inhibition at 10 g/ha: 0%
[1]; Galium aparine, weed, PPI application, 30 g/ha, read-out: Percent inhibition GALAP
  inhibition at 30 g/ha: 60%
[1]; Galium aparine, weed, PPI application, 100 g/ha, read-out: Percent inhibition GALAP
  inhibition at 100 g/ha: 40%
[1]; Galium aparine, weed, PPI application, 300 g/ha, read-out: Percent inhibition GALAP
  inhibition at 300 g/ha: 80%
[1]; Galium aparine, weed, PPI application, 900 g/ha, read-out: Percent inhibition GALAP
  inhibition at 900 g/ha: 100%
[1]; [11]
  PPI activity GR80, GALAP: 100 g/ha
[2]; 10 g/ha
  inhibition at 10 g/ha: 0%
[2]; 30 g/ha
  inhibition at 30 g/ha: 0%
[2]; 100 g/ha
  inhibition at 100 g/ha: 0%
[2]; 300 g/ha
  inhibition at 300 g/ha: 30%
[2]; 900 g/ha
  inhibition at 900 g/ha: 60%
[3]; Lolium multiflorum, weed, PPI application, 10 g/ha, read-out: Percent inhibition LOLMG
  inhibition at 10 g/ha: 45%
[3]; Lolium multiflorum, weed, PPI application, 30 g/ha, read-out: Percent inhibition LOLMG
  inhibition at 30 g/ha: 60%
[3]; Lolium multiflorum, weed, PPI application, 100 g/ha, read-out: Percent inhibition LOLMG
  inhibition at 100 g/ha: 95%
[3]; Lolium multiflorum, weed, PPI application, 300 g/ha, read-out: Percent inhibition LOLMG
  inhibition at 300 g/ha: 100%
[3]; Lolium multiflorum, weed, PPI application, 900 g/ha, read-out: Percent inhibition LOLMG
  inhibition at 900 g/ha: 100%
[3]; [11]
  PPI activity GR80, LOLMG: 100 g/ha
[4]; Urochloa platyphylla, PPI application, 10 g/ha, read-out: Percent inhibition BRAPP
  inhibition at 10 g/ha: 0%
[4]; Urochloa platyphylla, PPI application, 30 g/ha, read-out: Percent inhibition BRAPP
  inhibition at 30 g/ha: 0%
[4]; Urochloa platyphylla, PPI application, 100 g/ha, read-out: Percent inhibition BRAPP
  inhibition at 100 g/ha: 50%
[4]; Urochloa platyphylla, PPI application, 300 g/ha, read-out: Percent inhibition BRAPP
  inhibition at 300 g/ha: 100%
[4]; Urochloa platyphylla, PPI application, 900 g/ha, read-out: Percent inhibition BRAPP
  inhibition at 900 g/ha: 100%
[4]; [11]
  PPI activity GR80, BRAPP: 100 g/ha
[5]
  Post-emergence activity GR80, SETVI: [empty]
[6]
  PPI activity GR80, POLCO: 100 g/ha
[7]; 10 g/ha
  inhibition at 10 g/ha: 0%
[7]; 30 g/ha
  inhibition at 30 g/ha: 0%
[7]; 100 g/ha
  inhibition at 100 g/ha: 20%
[7]; 300 g/ha
  inhibition at 300 g/ha: 30%
[7]; 900 g/ha
  inhibition at 900 g/ha: 95%
[8]
  PPI activity GR80, STEME: 10 g/ha
[9]; 10 g/ha
  inhibition at 10 g/ha: 0%
[9]; 30 g/ha
  inhibition at 30 g/ha: 0%
[9]; 100 g/ha
  inhibition at 100 g/ha: 10%
[9]; 300 g/ha
  inhibition at 300 g/ha: 30%
[9]; 900 g/ha
  inhibition at 900 g/ha: 60%
[10]; Agrostis stolonifera, weed, PPI application, 10 g/ha, read-out: Percent inhibition AGSST
  inhibition at 10 g/ha: 70%
[10]; Agrostis stolonifera, weed, PPI application, 30 g/ha, read-out: Percent inhibition AGSST
  inhibition at 30 g/ha: 95%
[10]; Agrostis stolonifera, weed, PPI application, 100 g/ha, read-out: Percent inhibition AGSST
  inhibition at 100 g/ha: 95%
[10]; Agrostis stolonifera, weed, PPI application, 300 g/ha, read-out: Percent inhibition AGSST
  inhibition at 300 g/ha: 100%
[10]; Agrostis stolonifera, weed, PPI application, 900 g/ha, read-out: Percent inhibition AGSST
  inhibition at 900 g/ha: 100%
[10]; [11]
  PPI activity GR80, AGSST: 10 g/ha
